From patent publication US20220348876A1, “METABOLISM GUIDES DEFINITIVE LINEAGE SPECIFICATION DURING ENDOTHELIAL TO HEMATOPOIETIC TRANSITION” (Amniotics AB, priority 2019, published 2022)
Where two headings read alike, the source gives them in different places.

Legend:
[1] = tested on: HE cells; assay: HE cell subculture with compounds, flow cytometry; type: cell-based, human; conditions: for HE-derived CD43+GPA+ cell output: day 3 of subculture vs control, UK5099 10 μM, DCA 3 mM
Description: The RB9-CB1 human iPSC line was co-cultured with mouse embryonic fibroblasts (MEFs, Millipore), passaged every six days and processed to form embryoid bodies (EBs) as described previously (Guibentif, C. et al. Cell Reports 19, 10-19 (2017)). The differentiation protocol used in this study was previously described (Ditadi, A. & Sturgeon, C. M. Methods 101, 65-72 (2016)), however, small modifications were made to induce both primitive and definitive hematopoiesis, as indicated below and in FIG. 7, a. Newly-formed EBs were first kept in SFD medium supplemented with 1 ng/ml Activin A (on days 0-2) and 3 μM CHIR99021 (on day 2 only). At day 3, media was switched to “Day 3-SP34” medium supplemented with 1 ng/ml Activin A (on day 3 only) and 3 μM CHIR99021 (on day 3 only) until day 6. On day 6, media was replaced by “Day 6-SP34” medium, until day 8. In some experiments where indicated, to obtain a higher yield of HSC-like cells, EBs were kept until day 10: in this case, EBs were plated onto Matrigel (8 μg/cm^2, Corning)-coated dishes on day 8 and kept until day 10. Media was changed every day, except on days 5 and 7. On day 8 or 10 (as indicated), EBs were singularized with 5-6 rounds of 5-minute incubations with TryPLE Express (Thermo Fisher Scientific). CD34^+ cells were selected using the human CD34 MicroBead kit (Miltenyi Biotec) and stained with CD34-FITC, CD73-PE, VECad-PerCPCy5.5, CD38-PC7, CD184-APC, CD45-AF700, CD43-APCH7, GPA-eF450, CD90-BV605 and the viability marker 7AAD in order to sort HE (CD34^+CD43^−CXCR4^−CD73^−CD90^+VECad^+), EHT (CD34^+CD43^intCXCR4^−CD73^−CD90^+VECad^+) and HSC-like (CD34^+CD43^+CD90^+CD38^−) cells, according to previously described markers (Guibentif, C. et al. Cell Reports 19, 10-19 (2017); Harris, J. M. et al. Blood 121, 2483-2493 (2013) and Schenk, T. et al. Nat Med 18, 605-611 (2012)).
Sorted HE (40,000), EHT (30,000) and HSC-like (5-20,000) cells were plated onto Matrigel (16 μg/cm^2, Corning)-coated 96-well flat bottom plates in HE medium (30) with 1% penicillin-streptomycin and kept in a humidified incubator at 37° C., 5% CO2, 4% O2 overnight. […] Media was changed and drugs were added every 2 days and cells were kept in a humidified incubator at 37° C., 5% CO2, 20% O2 for 6-7 days.
(§1) To measure proliferation, cells were processed with the CellTrace Violet (CTV) kit according to manufacturer's instructions (10-minute incubation) and fluorescence was measured on a BD LSRFortessa. […] Flow cytometry outputs were analyzed on FlowJo Software, with initial gatings on SSC-A/FSC-A, FSC-H/FSC-A, SSC-H/SSC-A and 7-AAD to exclude doublets and dead cells in all experiments.

[2] = tested on: HE, EHT and HSC-like cells; conditions: 100 μM FCCP, all cell types
Method: On days 3 and 6 of subculture, cells were collected after a 2-minute incubation at 37° C. with StemPro Accutase Cell Dissociation Reagent and stained with CD34-FITC, CD14-PE, CD33-PC7, CD11b-APC, CD45-AF700, CD43-APCH7, GPA-eF450, CD90-BV605 and the viability marker 7AAD and fluorescence was measured on a BD LSRII. To measure mitochondrial activity, cells were incubated with Tetramethylrhodamine ethyl ester (TMRE, 20 nM) for 30 minutes at 37° C. Negative controls were incubated with 100 μM FCCP for 30 minutes at 37° C., prior to TMRE staining. […] III and MFI levels—MFI FMO were calculated. […] III. To measure proliferation, cells were processed with the CellTrace Violet (CTV) kit according to manufacturer's instructions (10-minute incubation) and fluorescence was measured on a BD LSRFortessa. To measure EdU incorporation, HE cells were assessed on day 1 or 2 of subculture after 24 h EdU pulses, using Click-iT EdU Flow Cytometry Cell Proliferation Assay (Thermo Fisher Scientific, C10424), according to manufacturer's instructions. Flow cytometry outputs were analyzed on FlowJo Software, with initial gatings on SSC-A/FSC-A, FSC-H/FSC-A, SSC-H/SSC-A and 7-AAD to exclude doublets and dead cells in all experiments.

[3] = tested on: HSC-like cells; assay: HSC-like cell subculture with compounds, flow cytometry; type: cell-based, human; conditions: day 3, 2-DG 1 mM
[4] = tested on: EHT cells; assay: EHT cell subculture with compounds, flow cytometry; type: cell-based, human; conditions: EHT cells, day 3; 2-DG 1 mM
Description: The RB9-CB1 human iPSC line was co-cultured with mouse embryonic fibroblasts (MEFs, Millipore), passaged every six days and processed to form embryoid bodies (EBs) as described previously (Guibentif, C. et al. Cell Reports 19, 10-19 (2017)). The differentiation protocol used in this study was previously described (Ditadi, A. & Sturgeon, C. M. Methods 101, 65-72 (2016)), however, small modifications were made to induce both primitive and definitive hematopoiesis, as indicated below and in FIG. 7, a. Newly-formed EBs were first kept in SFD medium supplemented with 1 ng/ml Activin A (on days 0-2) and 3 μM CHIR99021 (on day 2 only). At day 3, media was switched to “Day 3-SP34” medium supplemented with 1 ng/ml Activin A (on day 3 only) and 3 μM CHIR99021 (on day 3 only) until day 6. On day 6, media was replaced by “Day 6-SP34” medium, until day 8. […]
as §1

[5] = tested on: HE cells; assay: Lymphoid differentiation assay on OP9-DL1 stroma; type: cell-based, human; conditions: 3-day subculture in glutamine-free medium, then 35-day co-culture
Method: Subculture day 3 HE cells cultured in the presence of UK5099 (10 μM), DCA (3 mM), or in glutamine-free medium with DMK (1.75 mM), nucleosides (1×) or NEAAs (1×), as indicated, were collected after a 2-minute incubation at 37° C. with StemPro Accutase Cell Dissociation Reagent and seeded onto 80% confluent OP9-DL1 stroma. Cells were cultured in OP9 medium with SCF (10 ng/ml), FLT3-L (10 ng/ml), IL-2 (5 ng/ml), IL-7 (5 ng/ml, first 15 days only) and IL-15 (10 ng/ml) with passaging onto new OP9-DL1 stroma every week, as described previously (Renoux, V. M. et al. Immunity 43, 394-407 (2015)). At day 35 of co-culture, cells were analyzed on a BD LSRFortessa.

[6] = day 6 of subculture vs control, BPTES 25 μM, 1-AA 4 mM, TCP 300 nM, C646 10 μM, CP 5 μM

For `O=C(c1c2ccccc2cc2ccccc12)N1CCC(N2CCC[C@@H](C(=O)N3CCOCC3)C2)CC1` [CP-640186], the “HE-derived CD43+CD45+ population” value [1, 6] was “had the same effect as DCA”.
`N#CC(C#N)=NNc1ccc(OC(F)(F)F)cc1` [FCCP, Carbonyl cyanide 4-(trifluoromethoxy)phenylhydrazone] was tested, and the TMRE signal [2] was “abrogated the TMRE signal”.
`CC(C)c1c(C(=O)Nc2ccccc2)c(-c2ccccc2)c(-c2ccc(F)cc2)n1CC[C@@H](O)C[C@@H](O)CC(=O)O` [atorvastatin] was tested, and the “effect of DCA on CD43+CD45+ cells” value ([1]; Ato 0.5 μM in combination with DCA 3 mM) was “abrogated the effect of DCA”.
With `O=CC[C@@H](O)[C@H](O)[C@H](O)CO` [2-DG, 2-Deoxy-D-glucose] the “proliferation rate (CellTrace Violet)” value [3] was “significantly reduced”, the “proliferation rate (CellTrace Violet)” value [4] was “significantly reduced” and the “generation of the CD43+GPA+ cell population” value ([1]; day 3, % of the control, 2-DG 1 mM) was “less than 50%”. The “CD43+ cell output from HE cells” value ([1]; day 3 of subculture, 2-DG 1 mM) was “significantly reduced” and the “generation of the CD43+CD45+ cell population” value ([1]; day 6, % of the control, 2-DG 1 mM) was “less than 50%”.
With `COC(=O)CCC(=O)C(=O)OC` [DMK, dimethyl-ketoglutarate] the “NK cell differentiation (CD45+CD56+)” value [5] was “allowed efficient NK cell differentiation”, the “CD43+GPA+ population” value ([1]; HE subcultures without glutamine, days 3 and 6, vs control) was “could not rescue” and the “proliferation profile of HE cells (CTV)” value ([1]; glutamine deprivation, day 3, vs control) was “could not restore”. For the same compound, the “percentage of CD43+ cells that have lost CD34 expression” value ([1]; glutamine-free DMK-treated condition vs control, day 3) was “significantly decreased”, the “rescue of CD43+ cell output from HE cells” value ([1]; glutamine-free medium, day 3, DMK 1.75 mM) was “up to 60%” and the “percentages of CD43+CD45+ cells” value ([1]; glutamine-free medium, day 6, compared to the control) was “significant increase”.
With `CC(N)[PH](=O)O` (stereo not drawn) [1-AA, 1-aminoethylphosphinic acid] the “HE-derived CD43+GPA+ cell output” value ([1]; BPTES 25 μM, 1-AA 4 mM) was “significant increase”, the “levels of total CD43+ cells” value ([1]; day 6, treated vs untreated) was “unchanged” and the “HE-derived CD43+CD45+ population” value [1, 6] was “significant decrease”.
With `CC1=NN(c2ccc(C(=O)O)cc2)C(=O)/C1=C\c1ccc(-c2cc(C)c(C)cc2[N+](=O)[O-])o1` [C646] the “HE-derived CD43+CD45+ population” value [1, 6] was “did not have an effect”.
With `O=C(Cc1ccccc1)Nc1nnc(CCSCCc2nnc(NC(=O)Cc3ccccc3)s2)s1` [BPTES] the “HE-derived CD43+GPA+ cell output” value ([1]; BPTES 25 μM, 1-AA 4 mM) was “sharp decline” and the “HE-derived CD43+CD45+ population” value [1, 6] was “sharp decline”.
`CC(/C=C/C(=O)NO)=C\[C@@H](C)C(=O)c1ccc(N(C)C)cc1` [TSA, Trichostatin A] was tested, and the “emergence of CD43+ hematopoietic cells” value ([1]; TSA 60 nM, day 3) was “impaired the emergence”.
For `N[C@@H]1C[C@H]1c1ccccc1` (racemic) [TCP, Tranylcypromine], the “CD43+GPA+ cell frequency following UK5099 treatment of HE cells” value [1] was “no increase”, the “HE-derived CD43+CD45+ population” value [1] was “more CD43^+CD45^+ cells” and the “myeloid differentiation (CD43+CD45+CD33+CD11b+)” value [1] was “specifically increased”.
